Measured values from ChEMBL document CHEMBL6182891, “Discovery of novel 1,2,3-Triazole hybrids derivatives as vasorelaxant agents: Molecular structure, Hirshfeld surface, in-vivo and in-silico investigation by molecular docking simulation” (Eur J Med Chem, 2025).

Experiments:
Aorta [1] = assay: Vasorelaxant activity in endothelium-intact thoracic aortic rings of albino adult male Wistar rat assessed as reduction in epinephrine-induced contracture; format: functional, tissue-based
Aorta [2] = assay: Vasorelaxant activity in endothelium-intact thoracic aortic rings of albino adult male Wistar rat assessed as reduction in epinephrine-induced contracture at 0.05 to 0.2 mg/ml relative to control; format: functional; conditions: dose 0.05-0.2 mg/ml

| Compound | EC50 (Aorta [1]) [µM] | Emax (Aorta [2]) [%] |
| --- | --- | --- |
| O=C(Cn1cc(COC(Cn2cnc3ccccc3c2=O)c2ccccc2)nn1)Nc1ccccc1 (centres undefined) | 568 | 35 |
| Cc1ccccc1NC(=O)Cn1cc(COC(Cn2cnc3ccccc3c2=O)c2ccccc2)nn1 (centres undefined) | 246 | 93.5 |
| O=C(Cn1cc(COC(Cn2cnc3ccccc3c2=O)c2ccccc2)nn1)Nc1ccc(F)cc1 (centres undefined) | 345 | 48.2 |
| O=C(Cn1cc(COC(Cn2cnc3ccccc3c2=O)c2ccccc2)nn1)Nc1ccc(Cl)cc1 (centres undefined) | 198 | 95.1 |
| COc1ccc(NC(=O)Cn2cc(COC(Cn3cnc4ccccc4c3=O)c3ccccc3)nn2)cc1 (centres undefined) | 387 | 50.9 |
| Cc1ccc(NC(=O)Cn2cc(COC(Cn3cnc4ccccc4c3=O)c3ccccc3)nn2)cc1 (centres undefined) | 1040 | 16.4 |
| COc1ccc(CCN(C)CCCC(C#N)(c2ccc(OC)c(OC)c2)C(C)C)cc1OC (centres undefined) [VERAPAMIL] | 39 | 61.7 |
